Reference: patent publication US20250041284A1, “TREATMENT OF NEUROLOGICAL DISORDERS” (Praxis Precision Medicines, Inc., priority 2022, published 2025)
Entries after “also recorded” stand apart in the source; their conditions may differ. Like-named read-outs stand apart in the source and are kept apart here.

Assays:
human NaV1.6 [1] = target: T1, human NaV1.6 (Homo sapiens, UniProt Q9UQD0); assay: Persistent (late) INa inhibition, ATX-II activated, automated patch clamp in HEK cells; assay type: cell-based; details: for Persistent INa Hill slope: hNaV1.6 in HEK cells, ATX-II
T1 construct: HEK-293 cell lines stably expressing human NaV1.6 (NP_055006) were used; expressed in transfected cells
T1 sequence (Q9UQD0 whole entry): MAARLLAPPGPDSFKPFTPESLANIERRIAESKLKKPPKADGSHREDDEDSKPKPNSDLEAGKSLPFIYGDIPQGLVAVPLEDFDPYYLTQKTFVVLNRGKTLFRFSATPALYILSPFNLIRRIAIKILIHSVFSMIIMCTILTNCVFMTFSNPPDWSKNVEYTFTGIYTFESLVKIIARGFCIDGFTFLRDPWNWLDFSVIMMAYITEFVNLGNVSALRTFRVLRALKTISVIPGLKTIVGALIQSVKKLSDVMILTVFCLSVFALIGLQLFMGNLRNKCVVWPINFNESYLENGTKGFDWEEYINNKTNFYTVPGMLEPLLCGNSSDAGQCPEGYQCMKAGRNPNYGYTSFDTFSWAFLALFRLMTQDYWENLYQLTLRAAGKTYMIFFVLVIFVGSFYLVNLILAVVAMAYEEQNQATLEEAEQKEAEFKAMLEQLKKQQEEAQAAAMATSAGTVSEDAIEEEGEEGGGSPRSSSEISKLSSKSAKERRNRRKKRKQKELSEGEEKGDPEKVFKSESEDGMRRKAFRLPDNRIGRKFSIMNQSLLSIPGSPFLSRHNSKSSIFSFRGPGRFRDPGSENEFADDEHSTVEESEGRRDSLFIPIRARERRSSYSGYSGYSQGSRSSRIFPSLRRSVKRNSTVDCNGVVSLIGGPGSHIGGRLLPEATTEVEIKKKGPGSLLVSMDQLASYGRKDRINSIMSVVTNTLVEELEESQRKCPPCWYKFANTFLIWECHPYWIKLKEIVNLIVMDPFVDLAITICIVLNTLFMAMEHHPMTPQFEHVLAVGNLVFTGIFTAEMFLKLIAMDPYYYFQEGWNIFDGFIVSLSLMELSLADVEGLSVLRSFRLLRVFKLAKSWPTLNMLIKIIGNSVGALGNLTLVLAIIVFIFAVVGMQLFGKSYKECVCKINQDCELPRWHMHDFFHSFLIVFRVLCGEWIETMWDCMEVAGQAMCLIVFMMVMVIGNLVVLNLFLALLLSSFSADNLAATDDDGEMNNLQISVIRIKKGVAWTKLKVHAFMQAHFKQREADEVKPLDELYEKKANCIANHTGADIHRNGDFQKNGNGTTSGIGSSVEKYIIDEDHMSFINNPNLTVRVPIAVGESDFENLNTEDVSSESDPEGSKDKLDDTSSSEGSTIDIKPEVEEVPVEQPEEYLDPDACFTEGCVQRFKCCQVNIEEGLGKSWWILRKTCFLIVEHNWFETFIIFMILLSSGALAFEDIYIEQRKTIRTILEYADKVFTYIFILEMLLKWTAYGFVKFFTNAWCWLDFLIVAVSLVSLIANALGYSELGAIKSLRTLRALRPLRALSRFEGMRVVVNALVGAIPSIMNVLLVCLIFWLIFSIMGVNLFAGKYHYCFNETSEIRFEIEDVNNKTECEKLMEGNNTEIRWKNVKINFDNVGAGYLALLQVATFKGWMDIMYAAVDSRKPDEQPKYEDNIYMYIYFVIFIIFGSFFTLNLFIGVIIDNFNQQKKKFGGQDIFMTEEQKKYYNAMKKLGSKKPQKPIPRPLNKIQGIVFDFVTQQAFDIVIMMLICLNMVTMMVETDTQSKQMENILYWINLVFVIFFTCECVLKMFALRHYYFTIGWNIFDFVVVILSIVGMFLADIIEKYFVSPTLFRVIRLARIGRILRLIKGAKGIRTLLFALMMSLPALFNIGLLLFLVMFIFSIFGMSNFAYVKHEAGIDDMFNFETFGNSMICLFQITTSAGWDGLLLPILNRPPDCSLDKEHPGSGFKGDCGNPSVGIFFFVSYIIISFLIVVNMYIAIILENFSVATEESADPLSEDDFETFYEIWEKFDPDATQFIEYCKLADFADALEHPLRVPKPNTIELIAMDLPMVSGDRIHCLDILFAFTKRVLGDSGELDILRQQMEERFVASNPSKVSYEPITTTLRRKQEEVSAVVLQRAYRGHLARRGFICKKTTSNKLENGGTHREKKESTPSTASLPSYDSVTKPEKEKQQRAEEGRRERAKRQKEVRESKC

human NaV1.6 [2] = target: T1, human NaV1.6; assay: Peak INa tonic block (TB), automated patch clamp in HEK cells; assay type: cell-based; details: for Ratio to Pers. INa (Peak INa TB): peak INa TB IC50 / persistent INa IC50; for Peak INa TB Hill slope: tonic block
human NaV1.6 [3] = target: T1, human NaV1.6; assay: Peak INa use-dependent block (UDB-10 Hz), automated patch clamp in HEK cells; assay type: cell-based; details: for UDB preference to TB: TB IC50 / UDB IC50; for Ratio to Pers. INa (Peak INa UDB-10 Hz): UDB IC50 / persistent INa IC50; for activity dependent block of peak INa: in words, FIGS. 7A-7C; for Peak INa UDB-10 Hz Hill slope: use-dependent block 10 Hz
hNaV1.6 [4] = target: T2, hNaV1.6 (Homo sapiens, UniProt Q9UQD0); assay: Peak INa voltage-dependent block (VDB), automated patch clamp in HEK cells; assay type: cell-based; details: for Ratio to Pers. INa (Peak INa VDB): VDB IC50 / persistent INa IC50; for Peak INa VDB Hill slope: voltage-dependent block
T2 construct: expressed in transfected cells; host or cells: HEK cells
T2 sequence (Q9UQD0 whole entry): as above

hNaV1.6 [5] = target: T2, hNaV1.6; assay: Apparent binding (KON) and unbinding (KOFF) rates inferred from INa inhibition kinetics; assay type: cell-based; details: read-out: apparent KON
[6] = test system: MES-induced tonic hindlimb extension in male CD-1 mice; assay: MES acute seizure model, protection from tonic hindlimb extension (Example 9); assay type: in vivo, mouse; details: for ED50: Mus musculus, administered dose
Protocol: Male CD-1 mice (Vital River, Beijing, China) approximately 6 weeks old were obtained for the study. Body weights were between 20.5 grams and 38.5 grams at the time the experiments were carried out. […] Food and water were available ad libitum.
Treatment was conducted using Compound 1 and 35% 2-hydroxypropyl-β-cyclodextrin (35% HPBCD, used as a negative control). Compound 1 stock solution was prepared fresh each experiment day in 35% HPBCD and protected from light. The stock solution was diluted with vehicle for lower doses.
Mice were brought to the test room at least one hour before the start of the experiment. Mice were administered valproate (VPA; 400 mg/kg, intraperitoneally); or vehicle (35% HPBCD, 10 mL/kg, intraperitoneally); or Compound 1 (0.3 mg/kg, 1 mg/kg, 3 mg/kg or 10 mg/kg, orally) 30 minutes prior to the MES test.
The electroshock apparatus was set to deliver a 50 mA square-wave stimulus, with a 0.8 second duration, a pulse width of 10 milliseconds, and a frequency of 50 Hz. A pair of custom stainless-steel electrodes were soaked in 0.2% agar, and then the subject received bilateral transauricular stimulation through ear-clip electrodes. During the stimulation, mice were manually restrained then released immediately into an observation cage where they were monitored continuously for 60 seconds by an observer blinded to treatment group.
Mice were anesthetized with CO2 and terminal plasma and brain tissue samples were collected. […] The supernatant plasma was pipetted into Eppendorf tubes.
All statistical analyses were conducted using GraphPad Prism 9.3. Means were combined and standard error was calculated using the Satterthwaite Approximation to combine standard deviations. […] ED50 and EC50 values were calculated from these fit curves.

[7] = test system: psychomotor seizures induced by 6-Hz electrical stimulation in wild-type CD-1 mice; assay: 6-Hz psychomotor seizure model; assay type: in vivo, mouse; details: 600 mg/kg intraperitoneally
From the text: This study evaluated the efficacy of Compound 1 in attenuating psychomotor seizures induced by 6-Hz electrical stimulation at two different stimulation intensities (32 and 44 mA) in wild-type CD-1 mice. Psychomotor seizures are defined as the expression of at least one of the following behaviors: stun/immobility, forelimb clonus, straub tail or lateral head movement within 30 seconds of the stimulus. Protection is defined as a complete absence of the above behaviors within 30 seconds of the stimulus. Doses of Compound 1 used were 1 mg/kg, 3 mg/kg and 6 mg/kg administered orally. Valproate (600 mg/kg, administered intraperitoneally) was used as a positive control.
Male CD-1 mice (Charles River Laboratories; St. Constant, Quebec, CAN) were used for the study. Body weights at the time the experiment was carried out were 30-40 grams. The mice were group-housed in polycarbonate cages according to standard operating procedures. Animals were maintained on a 12-hour light/12 hour dark cycle, with all experimental activities occurring during the light phase. Food and water were available ad libitum. Mice acclimated to the test facility for at least 72 hours prior to testing.
Treatment was conducted using Compound 1 and 35% 2-hydroxypropyl-β-cyclodextrin (35% HPBCD, used as a negative control). Compound 1 stock solution was prepared fresh each experiment day in 35% HPBCD. […] Valproate was prepared fresh each experiment day in a vehicle of saline and dosed at 10 mL/kg.
Mice were administered vehicle (35% HPBCD), a single dose of Compound 1 (1 mg/kg, 3 mg/kg or 6 mg/kg) or valproate (600 mg/kg). Vehicle and Compound 1 were administered via oral gavage 30 minutes prior to […]. Valproate was administered as an intraperitoneal injection 60 minutes prior to the electrical stimulus.
Immediately prior to conducting the 6-Hz seizure test, a brief neurological assessment was performed. Each animal was visually assessed and received a score from 0 to 3 according to the following scoring system::neurological score of 0 corresponds to a normal status; neurological score of 1 corresponds to a modest decrease in spontaneous activity; neurological score of 2 corresponds to a marked decrease in spontaneous activity; and neurological score of 3 corresponds to loss of righting reflex.
Corneal electrodes moistened with saline (ECT unit 57800; Ugo Basile) were used to deliver the electrical stimulus (6-Hz, 0.2 millisecond pulse width, 3 seconds duration). The current delivered was either 32 mA or 44 mA. Immediately after the electrical stimulus, each mouse was monitored continuously for 30 seconds by an observer blinded to the treatment group. […] Mice were scored for the presence or absence of each seizure behavior, with a maximum total score of 4. […] At the end of the 6-Hz seizure test, plasma and brain samples were collected.
Mice were anesthetized with isoflurane, whole blood was collected via cardiac puncture and brains were harvested. Whole blood was collected in potassium EDTA tubes and centrifuged at ˜3300 g for 5 minutes at 4° C. to isolate plasma. Plasma and brain samples were stored at −80° C. and analyzed to determine levels of Compound 1.
All statistical analyses were conducted using GraphPad Prism 9.3. Seizure scores were compared using Kruskal-Wallis test, followed by Dunn's post hoc and p<0.05 was considered statistically significant.

[8] = 400 mg/kg intraperitoneally, listed as valproate

Row | Structure (SMILES) | Persistent INa Hill slope (human NaV1.6 [1]) | Ratio to Pers. INa (Peak INa TB) (human NaV1.6 [2]) | Peak INa TB Hill slope (human NaV1.6 [2]) | Ratio to Pers. INa (Peak INa UDB-10 Hz) (human NaV1.6 [3]) | Peak INa UDB-10 Hz Hill slope (human NaV1.6 [3]) | Ratio to Pers. INa (Peak INa VDB) (hNaV1.6 [4]) | Peak INa VDB Hill slope (hNaV1.6 [4]) | ED50 [6] [mg/kg] | further results
1 | NC(=O)N1c2ccccc2C=Cc2ccccc21 [Carbamazepine, carbamazepine] | (1.1) | 30 | (1.0) | 18 | (0.9) | 0.6 | (0.9) | 5.4 | preference for persistent INa relative to peak INa (human NaV1.6 [1]; in words, FIGS. 1A-1D): no preference for persistent INa; UDB preference to TB (human NaV1.6 [3]): no UDB observed; activity dependent block of peak INa (human NaV1.6 [3]): minimal activity dependent block of peak INa; kon (hNaV1.6 [5]; development of inhibition of hNaV1.6 INa): 11000 M⁻¹ s⁻¹
2 | NC(=O)O[C@@H](Cn1ncnn1)c1ccccc1Cl [Cenobamate, cenobamate] | (1.1) | 24 | (1.1) | 11 | (0.7) | 0.9 | (0.9) | 4.1 | UDB preference to TB (human NaV1.6 [3]): 2.3 ×; kon (hNaV1.6 [5]): 19000 M⁻¹ s⁻¹
3 | COC[C@@H](NC(C)=O)C(=O)NCc1ccccc1 [Lacosamide, lacosamide] | (0.9) |  |  | 0.8 | (1.3) | 0.3 | (1.2) |  | 
4 | Nc1nnc(-c2cccc(Cl)c2Cl)c(N)n1 [Lamotrigine, lamotrigine] | (1.0) |  | (0.8) |  | (1.0) |  | (0.9) | 3.8 | activity dependent block of peak INa (human NaV1.6 [3]): minimal activity dependent block of peak INa
5 | NC(=O)N1c2ccccc2CC(=O)c2ccccc21 [Oxcarbazepine, oxcarbazepine] | (1.0) | 8 | (1.7) |  |  | 0.3 | (1.1) |  | 
6 | O=C1NC(=O)C(c2ccccc2)(c2ccccc2)N1 [Phenytoin, phenytoin] | (0.8) |  |  | 15 | (0.6) | 0.8 | (1.0) |  | 
7 | CCCC(CCC)C(=O)O [Valproic acid] |  |  |  |  |  |  |  |  | sedation before MES test ([6]; 400 mg/kg intraperitoneally, listed as Valproate): mild to moderate sedation; protection against MES-induced hindlimb extension [6, 8]: all mice n=24 were seizure-free; also recorded: protected mice from MES-induced tonic hindlimb extension; sedation before MES test [6, 8]: nearly all valproate-treated mice showed mild to moderate sedation; neurological score (average) [7]: 1.2; spontaneous activity [7]: modest to marked decrease in spontaneous activity
8 | Cc1cc(N2CCc3cc(F)ccc3C2)cc(C)c1NC(=O)CC(C)(C)C [XEN1101] |  |  |  |  |  |  |  | 3.9 | 
